Test results reported in patent publication US20160220602A1, “USE OF CHINESE MEDICINE PREPARATION IN PREPARING DRUG FOR PREVENTING AND/OR TREATING CROHN'S DISEASE” (TASLY PHARMACEUTICAL GROUP CO., LTD., priority 2013, published 2016).

Assays:
Assay type in all cases: in vivo, SD rats
[1] = test system: OXZ-induced SD rat Crohn's disease model; experiment: Colon gross damage and histopathological score, OXZ model rats; conditions: 100 mg/kg
Experimental: Grouping: the experiment was carried out by using two ways of intracolonic and intragastric administration. […] There were 10 rats each group. Method for establishing rat model: referring to the Heller method, OXZ was used to induce the SD rat Crohn's disease model (abbreviated as “OXZ model”). Neck and back skin of rats were shaved (2 cm×2 cm). Ethanol was used to prepare 5% (w/v) OXZ solution, and 0.3 ml resultant OXZ solution was dripped on the skin of rats. […] The sensitized rats were adaptively raised for 5 days, […] anesthetized by intraperitoneal injection of pentobarbital sodium. […] After completion, the rats were inverted by lifting tails for 60s to make the solution totally absorbed. […] If the rats manifested dark hair color, body weight loss, poor appetite, lassitude, watery stool or diarrhea, the model establishment was success. Administration method: after successful model establishment by OXZ, the drug was given to rats. The TCM preparation k saline solutions at corresponding dose were administered to the groups of preparation k of all doses and the […] saline solution, a positive drug, administrated to the positive control group. The rats of blank control group were normally fed, given with water and the same volume of normal saline was given in the same administration routes by referring to the dosage regime of aforesaid treatment groups. The rats of model group were administrated with the same volume of normal saline in the same administration routes. The dose of each group was as follows: […] group at 100 mg/kg rat weight, the TCM preparation k high-dose group at 2.023 g raw medicine/kg rat weight, the middle-dose group at 1.012 g raw medicine/kg rat weight and the low-dose group at 0.506 g raw medicine/kg rat weight.

IL-4 [2] = experiment: Serum IL-4 by ELISA, TNBS model rats; conditions: 100 mg/kg once per day, 21 days
Experimental: Grouping: experiment was carried out by using two ways of intracolonic and intragastric administrations. […] There were 10 rats each group. Method for establishing rat model: referring to Morris method, TNBS was used to induce the SD rat Crohn's disease model (abbreviated as “TNBS model”). 24 hours before modeling, the SD rats were fasted but water was given. […] The rats of blank control group were normally fed with free access to water and the same volume of normal saline was given in the same administration routes by referring to the dosage regime of aforementioned treatment groups. The rats of model group were administrated with the same volume of normal saline in the same administration routes. […] (2) Serum indices: after final administration, the testing rats were fasted but given water. 24 hours later, blood was gained from abdominal aorta. Serum IFN-γ, IL-1, IL-4, IL-10 and Gln in intestinal mucosa were determined by enzyme-linked immunosorbent assay (ELISA) in rats.

IL-4 [3] = experiment: Serum IL-4 by ELISA, OXZ model rats; conditions: 100 mg/kg once per day, 11 days
Experimental: Grouping: the experiment was carried out by using two ways of intracolonic and intragastric administration. […] There were 10 rats each group. Method for establishing rat model: referring to the Heller method, OXZ was used to induce the SD rat Crohn's disease model (abbreviated as “OXZ model”). Neck and back skin of rats were shaved (2 cm×2 cm). Ethanol was used to prepare 5% (w/v) OXZ solution, and 0.3 ml resultant OXZ solution was dripped on the skin of rats. After the solution was air-dried naturally, skin allergy occurred in rats. The sensitized rats were adaptively raised for 5 days, […] anesthetized by intraperitoneal injection of pentobarbital sodium. […] After completion, the rats were inverted by lifting tails for 60s to make the solution totally absorbed. […] If the rats manifested dark hair color, body weight loss, poor appetite, lassitude, watery stool or diarrhea, the model establishment was success. Administration method: after successful model establishment by OXZ, the drug was given to rats. The TCM preparation k saline solutions at corresponding dose were administered to the groups of preparation k of all doses and the […] saline solution, a positive drug, administrated to the positive control group. […] Serum IFN-γ, IL-4, and Gln in intestinal mucosa were determined by ELISA in rats.

[4] = test system: TNBS-induced SD rat Crohn's disease model; experiment: Colon gross damage and histopathological score, TNBS model rats; conditions: 100 mg/kg
Experimental: Grouping: experiment was carried out by using two ways of intracolonic and intragastric administrations. […] There were 10 rats each group. Method for establishing rat model: referring to Morris method, TNBS was used to induce the SD rat Crohn's disease model (abbreviated as “TNBS model”). 24 hours before modeling, the SD rats were fasted but water was given. […] The rats of blank control group were normally fed with free access to water and the same volume of normal saline was given in the same administration routes by referring to the dosage regime of aforementioned treatment groups. The rats of model group were administrated with the same volume of normal saline in the same administration routes. […] (3) Pathological indices: the colon of rats was taken out. The gross colon tissue damage was scored, subsequently examined and scored histopathologically by conventional HE staining. […] [table]

[5] = Table 18: OXZ-model rats, route not printed in title

Compound: Nc1ccc(O)c(C(=O)O)c1 [mesalamine, Mesalamine]
- Gross damage score (Mean ± SD) ([1]; OXZ model rats, intragastric): 1.700 ± 1.494
- Gross damage score (Mean ± SD) [1, 5]: 1.800 ± 1.229
- Histopathological score (Mean ± SD) [1, 5]: 3.17 ± 1.33
- IL-4 serum content (Mean ± SD) (IL-4 [2]; intracolonic): 96.80 ± 27.51 pg/mL
- IL-4 serum content (Mean ± SD) (IL-4 [2]; intragastric): 75.80 ± 17.47 pg/mL
- IL-4 serum content (Mean ± SD) (IL-4 [3]; intracolonic): 86.63 ± 11.20 pg/mL
- IL-4 serum content (Mean ± SD) (IL-4 [3]; intragastric): 86.86 ± 7.84 pg/mL
- Gross damage score (Mean ± SD) ([4]; intracolonic): 0.500 ± 0.707
- Histopathological score (Mean ± SD) ([4]; intracolonic): 1.00 ± 1.10
- Gross damage score (Mean ± SD) ([4]; intragastric): 0.556 ± 0.527
- Histopathological score (Mean ± SD) ([4]; intragastric): 0.83 ± 0.41
